According to patent US12678507B2, “Protein tyrosine kinase 6 (PTK6) degradation / disruption compounds and methods of use” (Icahn School of Medicine at Mount Sinai, priority 2018, dated 2026):

These compounds were tested against T1, PTK6 (Homo sapiens, UniProt Q13882) (assay: Western blot of PTK6 protein levels in MDA-MB231 cells). Settings: MDA-231 (MDA-MB231) cells, 500 nM, 24 hours, Western blot (FIGS. 3-5).
T1 construct: endogenous in cells; host or cells: MDA-MB231 cells (ATCC)
Format: cell-based
Protocol: FIGS. 2-5. Effects of exemplary compounds on reducing PTK6 protein levels in breast cancer cells. Triple negative MDA-MB231 cells were treated for 24 hours with 500 nM, 2 uM or 2.5 uM of test compound and lysed. Proteins were resolved by SDS/PAGE and immunoblotted with antibody to PTK6 (Santa Cruz, Cell Signaling) or GAPDH loading control (Cell Signaling).
FIG. 13. PTK6 degraders suppress PTK6 expression. MDA-MB231 cells were treated with compounds (500 nM or 1 uM) for 24 hours in monolayer cultures. Cells were lysed and lysates were probed with anti-PTK6 antibody.
MDA-MB231 cells were treated with DMSO or indicated compounds at 2.5 uM, 2 uM or 500 nM for 24 hours.
MDA-MB231 cells were treated with compounds (500 nM or 1 uM) for 24 hours in monolayer cultures. Cells were lysed and lysates were probed with anti-PTK6 antibody.
Cells were lysed in 1% NP-40 lysis buffer containing NaF, Na3VO4, Leupeptin, PMSF, aprotinin, and phosphatase inhibitor (PhosSTOP, Roche) as described previously (Irie et al., 2010). Cleared cell lysates were stored at −80° C. and were analyzed by western analysis as described previously (Irie et al., 2010).

T1 sequence (Q13882 whole entry): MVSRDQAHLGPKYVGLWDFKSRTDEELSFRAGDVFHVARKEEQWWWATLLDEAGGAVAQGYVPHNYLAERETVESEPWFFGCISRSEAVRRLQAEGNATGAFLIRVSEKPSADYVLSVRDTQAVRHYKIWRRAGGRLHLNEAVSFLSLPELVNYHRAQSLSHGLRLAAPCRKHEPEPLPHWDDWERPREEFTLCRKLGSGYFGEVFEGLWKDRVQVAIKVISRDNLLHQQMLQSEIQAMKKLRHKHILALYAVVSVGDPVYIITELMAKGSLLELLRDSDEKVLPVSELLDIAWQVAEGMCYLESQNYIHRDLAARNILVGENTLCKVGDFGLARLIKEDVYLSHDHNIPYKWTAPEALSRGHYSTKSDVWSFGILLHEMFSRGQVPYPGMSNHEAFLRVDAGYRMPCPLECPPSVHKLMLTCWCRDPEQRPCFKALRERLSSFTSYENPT

| reducing PTK6 protein levels / suppress PTK6 expression | Compound |
| --- | --- |
| potently suppress PTK6 expression | Cc1ncsc1-c1ccc([C@H](C)NC(=O)[C@@H]2C[C@@H](O)CN2C(=O)[C@@H](NC(=O)COCCOCCOCCNC(=O)CN2CCN(C(=O)c3ccc(Nc4nc(C5CC5)cn5c(-c6cn[nH]c6)cnc45)c(F)c3)CC2)C(C)(C)C)cc1 [YX69-159, (2S,4R)-1-((S)-2-(tert-butyl)-17-(4-(4-((6-cyclopropyl-3-(1H-pyrazol-4-yl)imidazo[1,2-a]pyrazin-8-yl)amino)-3-fluorobenzoyl)piperazin-1-yl)-4,16-dioxo-6,9,12-trioxa-3,15-diazaheptadecanoyl)-4-hydroxy-N-((S)-1-(4-(4-methylthiazol-5-yl)phenyl)ethyl)pyrrolidine-2-carboxamide] |
| potently suppress PTK6 expression | Cc1ncsc1-c1ccc(CNC(=O)[C@@H]2C[C@@H](O)CN2C(=O)[C@@H](NC(=O)CCCC(=O)N2CCN(C(=O)c3ccc(Nc4nc(C5CC5)cn5c(-c6cn[nH]c6)cnc45)c(F)c3)CC2)C(C)(C)C)cc1 [YX79-10, (2S,4R)-1-((S)-2-(5-(4-(4-((6-cyclopropyl-3-(1H-pyrazol-4-yl)imidazo[1,2-a]pyrazin-8-yl)amino)-3-fluorobenzoyl)piperazin-1-yl)-5-oxopentanamido)-3,3-dimethylbutanoyl)-4-hydroxy-N-(4-(4-methylthiazol-5-yl)benzyl)pyrrolidine-2-carboxamide] |
| potently suppress PTK6 expression | Cc1ncsc1-c1ccc(CNC(=O)[C@@H]2C[C@@H](O)CN2C(=O)[C@@H](NC(=O)CCCCC(=O)N2CCN(C(=O)c3ccc(Nc4nc(C5CC5)cn5c(-c6cn[nH]c6)cnc45)c(F)c3)CC2)C(C)(C)C)cc1 [YX79-11, (2S,4R)-1-((S)-2-(6-(4-(4-((6-cyclopropyl-3-(1H-pyrazol-4-yl)imidazo[1,2-a]pyrazin-8-yl)amino)-3-fluorobenzoyl)piperazin-1-yl)-6-oxohexanamido)-3,3-dimethylbutanoyl)-4-hydroxy-N-(4-(4-methylthiazol-5-yl)benzyl)pyrrolidine-2-carboxamide] |
| potently suppress PTK6 expression | Cc1ncsc1-c1ccc(CNC(=O)[C@@H]2C[C@@H](O)CN2C(=O)[C@@H](NC(=O)CCCCCC(=O)N2CCN(C(=O)c3ccc(Nc4nc(C5CC5)cn5c(-c6cn[nH]c6)cnc45)c(F)c3)CC2)C(C)(C)C)cc1 [YX79-12, (2S,4R)-1-((S)-2-(7-(4-(4-((6-cyclopropyl-3-(1H-pyrazol-4-yl)imidazo[1,2-a]pyrazin-8-yl)amino)-3-fluorobenzoyl)piperazin-1-yl)-7-oxoheptanamido)-3,3-dimethylbutanoyl)-4-hydroxy-N-(4-(4-methylthiazol-5-yl)benzyl)pyrrolidine-2-carboxamide] |
| potently suppress PTK6 expression | Cc1ncsc1-c1ccc(CNC(=O)[C@@H]2C[C@@H](O)CN2C(=O)[C@@H](NC(=O)CCOCCC(=O)N2CCN(C(=O)c3ccc(Nc4nc(C5CC5)cn5c(-c6cn[nH]c6)cnc45)c(F)c3)CC2)C(C)(C)C)cc1 [YX79-15, (2S,4R)-1-((S)-2-(3-(3-(4-(4-((6-cyclopropyl-3-(1H-pyrazol-4-yl)imidazo[1,2-a]pyrazin-8-yl)amino)-3-fluorobenzoyl)piperazin-1-yl)-3-oxopropoxy)propanamido)-3,3-dimethylbutanoyl)-4-hydroxy-N-(4-(4-methylthiazol-5-yl)benzyl)pyrrolidine-2-carboxamide] |
| potently suppress PTK6 expression | O=C1CCC(N2C(=O)c3cccc(NCCOCCOCCC(=O)N4CCN(C(=O)c5ccc(Nc6nc(C7CC7)cn7c(-c8cn[nH]c8)cnc67)c(F)c5)CC4)c3C2=O)C(=O)N1 (centres unmarked) [YX79-36, 4-((2-(2-(3-(4-(4-((6-cyclopropyl-3-(1H-pyrazol-4-yl)imidazo[1,2-a]pyrazin-8-yl)amino)-3-fluorobenzoyl)piperazin-1-yl)-3-oxopropoxy)ethoxy)ethyl)amino)-2-(2,6-dioxopiperidin-3-yl)isoindoline-1,3-dione] |

| Compound | reducing PTK6 protein levels / suppress PTK6 expression |
| --- | --- |
| Cc1ncsc1-c1ccc(CNC(=O)[C@@H]2C[C@@H](O)CN2C(=O)[C@@H](NC(=O)CCCCNC(=O)CN2CCN(C(=O)c3ccc(Nc4nc(C5CC5)cn5c(-c6cn[nH]c6)cnc45)c(F)c3)CC2)C(C)(C)C)cc1 [YX39-101, (2S,4R)-1-((S)-2-(5-(2-(4-(4-((6-cyclopropyl-3-(1H-pyrazol-4-yl)imidazo[1,2-a]pyrazin-8-yl)amino)-3-fluorobenzoyl)piperazin-1-yl)acetamido)pentanamido)-3,3-dimethylbutanoyl)-4-hydroxy-N-(4-(4-methylthiazol-5-yl)benzyl)pyrrolidine-2-carboxamide] | effective in reducing PTK6 protein levels |
| Cc1ncsc1-c1ccc(CNC(=O)[C@@H]2C[C@@H](O)CN2C(=O)[C@@H](NC(=O)CCCCCNC(=O)CN2CCN(C(=O)c3ccc(Nc4nc(C5CC5)cn5c(-c6cn[nH]c6)cnc45)c(F)c3)CC2)C(C)(C)C)cc1 [YX39-102, (2S,4R)-1-((S)-2-(6-(2-(4-(4-((6-cyclopropyl-3-(1H-pyrazol-4-yl)imidazo[1,2-a]pyrazin-8-yl)amino)-3-fluorobenzoyl)piperazin-1-yl)acetamido)hexanamido)-3,3-dimethylbutanoyl)-4-hydroxy-N-(4-(4-methylthiazol-5-yl)benzyl)pyrrolidine-2-carboxamide] | effective in reducing PTK6 protein levels |
| Cc1ncsc1-c1ccc(CNC(=O)[C@@H]2C[C@@H](O)CN2C(=O)[C@@H](NC(=O)CCCCCCCNC(=O)CN2CCN(C(=O)c3ccc(Nc4nc(C5CC5)cn5c(-c6cn[nH]c6)cnc45)c(F)c3)CC2)C(C)(C)C)cc1 [YX39-104, (2S,4R)-1-((S)-2-(8-(2-(4-(4-((6-cyclopropyl-3-(1H-pyrazol-4-yl)imidazo[1,2-a]pyrazin-8-yl)amino)-3-fluorobenzoyl)piperazin-1-yl)acetamido)octanamido)-3,3-dimethylbutanoyl)-4-hydroxy-N-(4-(4-methylthiazol-5-yl)benzyl)pyrrolidine-2-carboxamide] | effective in reducing PTK6 protein levels |
| Cc1ncsc1-c1ccc(CNC(=O)[C@@H]2C[C@@H](O)CN2C(=O)[C@@H](NC(=O)CCCCCCCCCNC(=O)CN2CCN(C(=O)c3ccc(Nc4nc(C5CC5)cn5c(-c6cn[nH]c6)cnc45)c(F)c3)CC2)C(C)(C)C)cc1 [YX39-106, (2S,4R)-1-((S)-2-(10-(2-(4-(4-((6-cyclopropyl-3-(1H-pyrazol-4-yl)imidazo[1,2-a]pyrazin-8-yl)amino)-3-fluorobenzoyl)piperazin-1-yl)acetamido)decanamido)-3,3-dimethylbutanoyl)-4-hydroxy-N-(4-(4-methylthiazol-5-yl)benzyl)pyrrolidine-2-carboxamide] | effective in reducing PTK6 protein levels |
| Cc1ncsc1-c1ccc(CNC(=O)[C@@H]2C[C@@H](O)CN2C(=O)[C@@H](NC(=O)CCCCCCCCCCNC(=O)CN2CCN(C(=O)c3ccc(Nc4nc(C5CC5)cn5c(-c6cn[nH]c6)cnc45)c(F)c3)CC2)C(C)(C)C)cc1 [YX39-107, (2S,4R)-1-((S)-2-(11-(2-(4-(4-((6-cyclopropyl-3-(1H-pyrazol-4-yl)imidazo[1,2-a]pyrazin-8-yl)amino)-3-fluorobenzoyl)piperazin-1-yl)acetamido)undecanamido)-3,3-dimethylbutanoyl)-4-hydroxy-N-(4-(4-methylthiazol-5-yl)benzyl)pyrrolidine-2-carboxamide] | effective in reducing PTK6 protein levels |
